Usually IC50 stands for the concentration at which inhibition is half-maximal. For orientation: bioavailability means the share of a dose that reaches the circulation, judged against a reference dose that is usually intravenous.

Each structure is given as a SMILES string. Calls of active or inactive are those of the source. The calls are words filed in the database; no cut-off is given here. Where only a bound is given, the exact number is not on record here.

Data set [1] has as its system Mus musculus. Description: Anti-inflammatory activity in MOG (35 to 55 residues)-induced experimental autoimmune encephalomyelitis mouse model assessed as reversal of clinical scores at 15 mg/kg, INH administered twice daily for 25 days. The class given is functional, organism-based. To be noted: time 25.0 day.
The test system of data set [2] is Mus musculus. Description: Anti-inflammatory activity in MOG (35 to 55 residues)-induced experimental autoimmune encephalomyelitis mouse model assessed as reduction in brain IFNgamma level at 15 mg/kg, INH. The class given is functional. On the set-up: scale not given: the % may be the effect or the level left.
Data set [3] has as its system Mus musculus. Description: Anti-inflammatory activity in MOG (35 to 55 residues)-induced experimental autoimmune encephalomyelitis mouse model assessed as reduction in brain TNFalpha level at 15 mg/kg, INH. The class given is functional, organism-based.
In data set [4] the test system is Mus musculus. Description: Anti-inflammatory activity in MOG (35 to 55 residues)-induced experimental autoimmune encephalomyelitis mouse model assessed as reduction in spinal cord inflammation severity score at 15 mg/kg, INH by H&E staining based light microscopic analysis. The class given is functional, organism-based.
Data set [5] has as its system Mus musculus. Briefly: Anti-inflammatory activity in MOG (35 to 55 residues)-induced experimental autoimmune encephalomyelitis mouse model assessed as reduction in spinal cord demyelination severity score at 15 mg/kg, INH by Luxol fast blue staining based light microscopic analysis. The class given is functional, organism-based.
The target of data set [6] is Dual specificity tyrosine-phosphorylation-regulated kinase 1A (Homo sapiens, UniProt Q13627). Briefly: Inhibition of DYRK1A (unknown origin) using HT-497 as substrate preincubated with compound followed by substrate addition and measured after 30 mins in the presence of ATP by ELISA analysis.
Data set [7] relates to Mus musculus. Briefly: Anti-inflammatory activity in MOG (35 to 55 residues)-induced experimental autoimmune encephalomyelitis mouse model assessed as reduction in brain IL-17 level at 15 mg/kg, INH. The class given is functional. On the set-up: scale not given: the % may be the effect or the level left.
Data set [8] relates to Mus musculus. Briefly: Anti-inflammatory activity in MOG (35 to 55 residues)-induced experimental autoimmune encephalomyelitis mouse model assessed as reduction in spinal cord axonal neurodegeneration severity score at 15 mg/kg, INH by Bielschowsky silver staining based light microscopic analysis. The class given is functional, organism-based.
Data set [9] can be described thus: Oral bioavailability in Sprague-Dawley rat at 100 mg/kg. The class given is ADME, organism-based. To be noted: in vivo.
Data set [10] in a line: Bioavailability in CF-1 mouse at 163.8 micromol/kg, IG measured upto 720 mins. The class given is ADME, organism-based. The note with it: in vivo, po, 163.8 µmol/kg.
For data set [11], the species on record is Mus musculus. Description: Anti-inflammatory activity in MOG (35 to 55 residues)-induced experimental autoimmune encephalomyelitis mouse model assessed as reduction in spinal cord axonal neurodegeneration severity score by Bielschowsky silver staining based light microscopic analysis. The class given is functional, organism-based.
The species entered for data set [12] is Mus musculus. Briefly: Anti-inflammatory activity in MOG (35 to 55 residues)-induced experimental autoimmune encephalomyelitis mouse model assessed as reduction in spinal cord inflammation severity score by H&E staining based light microscopic analysis. The class given is functional, organism-based.
The subject of data set [13] is Mus musculus. Description: Anti-inflammatory activity in MOG (35 to 55 residues)-induced experimental autoimmune encephalomyelitis mouse model assessed as reversal of clinical scores at 1 mg/kg, INH administered once daily for 25 days. The class given is functional, organism-based. To be noted: time 25.0 day.
The species entered for data set [14] is Mus musculus. Description: Anti-inflammatory activity in MOG (35 to 55 residues)-induced experimental autoimmune encephalomyelitis mouse model assessed as reduction in spinal cord demyelination severity score by Luxol fast blue staining based light microscopic analysis. The class given is functional, organism-based.

Turning to `O=C(O[C@@H]1Cc2c(O)cc(O)cc2O[C@H]1c1cc(O)c(O)c(O)c1)c1cc(O)c(O)c(O)c1F`, the result in the data set on Mus musculus [1], in the data set on Mus musculus [3], with Mus musculus [4], with Mus musculus [5] and in the data set with Mus musculus [8] was Active. Moreover, the Activity with Mus musculus [2] was 90%; in the data set on Mus musculus [7], 79%. Besides, in data set [6], the IC50 came out at 35 nM.
For the molecule `O=C(O[C@@H]1Cc2c(O)cc(O)cc2O[C@@H]1c1ccc(O)c(O)c1)c1cc(O)c(O)c(O)c1` [EPICATECHIN GALLATE], in data set [6], the IC50 came to 523 nM.
As to `O=C(O[C@@H]1Cc2ccccc2O[C@H]1c1cc(O)c(O)c(O)c1)c1cc(O)c(O)c(O)c1` (racemic), the IC50 in [6] was determined as 422 nM.
As to `O=C(O[C@@H]1Cc2c(O)cc(O)cc2O[C@H]1c1ccc(O)c(O)c1)c1cc(O)c(O)c(O)c1F` (racemic), the IC50 in data set [6] worked out at 74 nM.
The same measure, in the same setting: in the case of `O=C(O[C@@H]1Cc2c(O)cc(O)cc2O[C@H]1c1cc(O)c(O)c(O)c1)c1cc(O)c(O)cc1O` it was 172 nM; in that of `O=C(O[C@@H]1Cc2c(O)cc(O)cc2O[C@H]1c1cc(O)c(O)c(O)c1F)c1cc(O)c(O)c(O)c1`, 60 nM; in that of `COc1c(O)cc([C@@H]2Oc3cc(O)cc(O)c3C[C@H]2OC(=O)c2cc(O)c(O)c(O)c2)cc1O`, 5800 nM.
Still for that read-out and setting: in the case of `O=C(O[C@@H]1Cc2ccccc2C[C@H]1c1cc(O)c(O)c(O)c1)c1cc(O)c(O)c(O)c1` (racemic) it was 1050 nM; in that of `O=C(O[C@@H]1Cc2c(O)cc(O)cc2O[C@H]1c1ccc(O)c(O)c1)c1cc(O)c(O)c(O)c1` [(-)-CATECHINGALLATE], 220 nM.
Consider `O=C(O[C@@H]1Cc2c(O)cc(O)cc2O[C@H]1c1cc(O)c(O)c(O)c1)c1cc(O)c(O)cc1F`, for which the IC50 in data set [6] was 107 nM.
Regarding `O=C(O[C@@H]1Cc2c(O)cc(O)cc2O[C@@H]1c1cc(O)c(O)c(O)c1)c1cc(O)c(O)c(O)c1` [EPIGALOCATECHIN GALLATE], the bioavailability in data set [9] is no more than 5%; in [10], 12%. The concentration for half-maximal inhibition (IC50) in [6] was 232 nM.
Consider `O=C(O[C@@H]1Cc2c(O)cc(O)cc2O[C@H]1c1cc(O)c(O)cc1F)c1cc(O)c(O)c(O)c1F`, for which the half-inhibitory concentration (IC50) in data set [6] worked out at 115 nM.
On the same count and under the same terms, in the case of `O=C(O[C@@H]1Cc2c(O)cc(O)cc2O[C@H]1c1cc(O)c(O)c(O)c1F)c1cc(O)c(O)c(O)c1F` it was 54 nM; in that of `O=C(O[C@@H]1Cc2c(O)cccc2O[C@H]1c1cc(O)c(O)c(O)c1)c1cc(O)c(O)c(O)c1` (racemic), 212 nM; in that of `O=C(O[C@@H]1Cc2c(O)cc(O)cc2O[C@H]1c1cc(O)c(O)c(O)c1)c1ccc(O)c(O)c1`, 236 nM.
For `CCCCCCCCc1ccc(CCC(N)(CO)CO)cc1`, the outcome in the data set listed under Mus musculus [11], in the data set filed under Mus musculus [12], with Mus musculus [13] and in the data set filed under Mus musculus [14] was Active.
Take `Cc1c([C@@H]2Oc3cc(O)cc(O)c3C[C@H]2OC(=O)c2cc(O)c(O)c(O)c2)cc(O)c(O)c1O`: the 50% inhibitory concentration (IC50) in data set [6] is 296 nM.
With `O=C(O[C@@H]1Cc2c(O)cc(O)cc2O[C@H]1c1cc(O)c(O)c(O)c1)c1cc(O)c(O)cc1C(F)(F)F`, the IC50 in data set [6] was found to be 432 nM.
As to `O=C(O[C@@H]1Cc2c(O)cc(O)cc2O[C@H]1c1cc(O)c(O)c(O)c1)c1cc(O)c(O)c(F)c1`, the IC50 in [6] was found to be 145 nM.
Regarding `COc1c(O)cc(C(=O)O[C@@H]2Cc3c(O)cc(O)cc3O[C@H]2c2cc(O)c(O)c(O)c2)cc1O`, the half-inhibitory concentration (IC50) in data set [6] came out at 25100 nM.
Take `COc1cc(C(=O)O[C@@H]2Cc3c(O)cc(O)cc3O[C@@H]2c2cc(O)c(O)c(O)c2)cc(O)c1O`: the IC50 in data set [6] is 429 nM.
On the same count and under the same terms, in the case of `O=C(O[C@@H]1Cc2c(O)cc(O)cc2O[C@H]1c1cc(O)c(O)cc1F)c1cc(O)c(O)c(O)c1` it was 153 nM.
`O=C(O[C@@H]1Cc2c(O)cc(O)cc2O[C@H]1c1cc(O)c(O)c(O)c1)c1ccc(O)c(O)c1O`: in data set [6], the IC50 was determined as 108 nM.
On the same count and under the same terms, as for `Cc1c(C(=O)O[C@@H]2Cc3c(O)cc(O)cc3O[C@H]2c2cc(O)c(O)c(O)c2)ccc(O)c1O`, the figure is 553 nM.
